SMILES strings stand for the structures. Bridge positions count the residues as written; N and C are the ends. Square brackets hold non-standard residues; d marks the D form. Peptide text beside a SMILES is read from it. * marks the point of attachment. Ac6c = NC1(C(=O)O)CCCCC1; Octanoyl = CCCCCCCC(=O)*; dDap = NC[C@@H](N)C(=O)O Where only a bound is given, the exact number is not on record here.

The test system of one experiment is MCP-1. Briefly: In vitro chemotaxis (trans-well migration) v MCP-1. It counts as cell-based, human. The essentials: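 Trans-well migration toward IL-8 or MCP-1 placed below, with agent added to THP-1 cells (10^4-10^6) in the top well and incubation at 37° C (e.g. 4 hours). MTT absorbance at 595 nm, interpolated on a cell standard curve, gives migrated cell numbers; TGFβ-type negative control and cytotoxicity check included.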

The next experiment deals with IL-8. Briefly: In vitro chemotaxis, inhibition v IL-8. The experiment is classed as cell-based, human. Also on record: concentration or dose not given beside the values. The method, then: To determine whether an agent inhibits a chemokine-induced activity, such as macrophage recruitment, varying amounts of the agent are mixed with cells in the presence of a known chemoattractant. For example, a range of known concentrations of an agent, e.g., a chemokine peptide, is incubated with a defined number (e.g., 10^4-10^6) of human THP-1 monocyte cells in individual wells of the top compartment of a trans-well plate. Chemokine, at a concentration known to cause significant migration of THP-1 cells in the trans-well migration assay, is placed in the lower compartment of a trans-well plate. Cells are then incubated at 37° C. for a period sufficient to allow migration, e.g., 4 hours. After incubation, the cells are gently removed from the top of the filter with a pipette, 20 μl of 20 mM EDTA in simple PBS is added into each top well, and incubated for 20 minutes at 4° C. The filter is carefully flushed with media using a gentle flow, and removed. A standard curve consisting of a two-fold dilution series of THP-1 cells (in 29 μl) is placed to accurately quantify the number of cells that have migrated. Migrated cells are stained with 3 μl of MTT stock dye solution which is added directly into each well (5 mg/ml in RPMI-1640 without phenol red) (Sigma Chemical Co., St. Louis, Mo., USA) and incubated at 37° C. for 4 hours. The media is carefully aspirated from each well, and the converted dye is solubilized by 20 μl of DMSO. Absorbance of converted dye is measured at a wavelength of 595 nm using an ELISA plate reader. The number of migrated cells in each well is then determined by interpolation of the standard curve (see also Imai et al., J. Biol. Chem., 272:15036, 1997). Any method suitable for counting cells can be used, for example, counting with a hemocytometer, incubation of the cells with MTT (see above), or FACS analysis. A negative control assay is also performed, using TGFβ or another non-chemokine chemoattractant (e.g., IL1β or TNFα). To assess whether the agent is cytotoxic, the same concentrations of agent are incubated with THP-1 cells. Agents which 1) are not cytotoxic at levels which inhibit migration, 2) are ineffective at inhibiting the negative control-induced migration, and 3) reduce or inhibit chemokine-induced THP-1 migration, are agents which fall within the scope of the invention.

`CC[C@H](C)[C@@H]1NC(=O)[C@H](Cc2c[nH]c3ccccc23)NC(=O)[C@H](CCCCN)NC(=O)[C@H](CCC(N)=O)NC(=O)[C@H](CCCCN)NC(=O)[C@@H]2CCCN2C(=O)[C@H](CC(=O)O)NC(=O)[C@@H](CC(C)C)NC(=O)[C@@H](NC(C)=O)CSSC[C@@H](C(N)=O)NC(=O)[C@H](CCC(N)=O)NC1=O` [Example 32, Ac-c(Cys-D-Leu-Asp-Pro-Lys-Gln-Lys-Trp-Ile-Gln-Cys)-NH2] (Ac-C[dL]DPKQKWIQC-NH2; disulfide 1-11) returned an EC50 in the experiment with MCP-1 greater than 1000 nM. For the same molecule, in the experiment with IL-8, the “v IL-8 inhibition (%)” value is 8.7%.
In turn, `CC[C@H](C)[C@@H]1NC(=O)[C@H](Cc2c[nH]c3ccccc23)NC(=O)[C@H](CCCCN)NC(=O)[C@H](CCC(N)=O)NC(=O)[C@H](CCCCN)NC(=O)[C@@H](N)CSSC[C@@H](C(N)=O)NC(=O)[C@H](CCC(N)=O)NC1=O` [Example 49, c(Cys-Lys-Gln-Lys-Trp-Ile-Gln-Cys)-NH2] (H-CKQKWIQC-NH2; disulfide 1-8) came in with an EC50 in the experiment on MCP-1 of 100 nM. Further, the “v IL-8 inhibition (%)” value in the experiment with IL-8 was 72.6%.
For `CC[C@H](C)[C@@H]1NC(=O)[C@H](Cc2c[nH]c3ccccc23)NC(=O)[C@H](CCCCN)NC(=O)[C@H](CCC(N)=O)NC(=O)[C@H](CCCCN)NC(=O)[C@@H]2CCCN2C(=O)[C@@H](NC(C)=O)CSSC[C@@H](C(=O)N[C@H](CC(=O)O)C(=O)N[C@H](CC(C)C)C(N)=O)NC(=O)[C@H](CCC(N)=O)NC1=O` [Example 158, Ac-c(Cys-Pro-Lys-Gln-Lys-Trp-Ile-Gln-Cys)-D-Asp-D-Leu-NH2] (Ac-CPKQKWIQC[dD][dL]-NH2; disulfide 1-9) the same measures were greater than 1000 nM and −17.9%.
`CC[C@H](C)[C@@H]1NC(=O)[C@H](Cc2c[nH]c3ccccc23)NC(=O)[C@H](CCCCN)NC(=O)[C@H](CCC(N)=O)NC(=O)[C@H](CCCCN)NC(=O)[C@@H]2CCCN2C(=O)[C@H](CC(=O)O)NC(=O)[C@@H](NC(=O)[C@@H](N)CC(C)C)CSSC[C@@H](C(N)=O)NC(=O)[C@H](CCC(N)=O)NC1=O` [Example 10, Leu-c(Cys-Asp-Pro-Lys-Gln-Lys-Trp-Ile-Gln-Cys)-NH2] (H-LCDPKQKWIQC-NH2; disulfide 2-11) came in with an EC50 in the experiment on MCP-1 of 10 nM. Also, in the experiment on IL-8, the “v IL-8 inhibition (%)” value came to 102.2%.
For `CC[C@H](C)[C@@H]1NC(=O)[C@H](Cc2c[nH]c3ccccc23)NC(=O)[C@H](CCCCN)NC(=O)[C@H](CCC(N)=O)NC(=O)[C@H](CCCCN)NC(=O)[C@@H](NC(=O)[C@@H]2CCCN2)CSSC[C@@H](C(N)=O)NC(=O)[C@H](CCC(N)=O)NC1=O` [Example 43, Pro-c(Cys-Lys-Gln-Lys-Trp-Ile-Gln-Cys)-NH2] (H-PCKQKWIQC-NH2; disulfide 2-9) the same measures were 600 nM and 21.9%.
For `CC[C@H](C)[C@@H]1NC(=O)[C@H](Cc2c[nH]c3ccccc23)NC(=O)[C@H](CCCCN)NC(=O)[C@H](CCC(N)=O)NC(=O)[C@H](CCCCN)NC(=O)[C@@H]2CCCN2C(=O)[C@H](CC(=O)O)NC(=O)[C@H](CC(C)C)NC(=O)[C@@H](NC(=O)[C@H](CCCCN)NC(C)=O)CSSC[C@@H](C(N)=O)NC(=O)[C@H](CCC(N)=O)NC1=O` [Example 34, Ac-Lys-c(Cys-Leu-Asp-Pro-Lys-Gln-Lys-Trp-Ile-Gln-Cys)-NH2] (Ac-KCLDPKQKWIQC-NH2; disulfide 2-12) the same measures were 250 nM and 75.7%.
For `CC[C@H](C)[C@@H]1NC(=O)[C@H](Cc2c[nH]c3ccccc23)NC(=O)[C@H](CCCCN)NC(=O)[C@H](CCC(N)=O)NC(=O)[C@@H](NC(=O)[C@@H](N)CCCCN)CSSC[C@@H](C(N)=O)NC(=O)[C@H](CCC(N)=O)NC1=O` [Example 47, Lys-c(Cys-Gln-Lys-Trp-Ile-Gln-Cys)-NH2] (H-KCQKWIQC-NH2; disulfide 2-8) the same measures were 20 nM and 103.2%.
The molecule `CC[C@H](C)[C@@H]1NC(=O)[C@@H](Cc2c[nH]c3ccccc23)NC(=O)[C@H](CCCCN)NC(=O)[C@H](CCC(N)=O)NC(=O)[C@H](CCCCN)NC(=O)[C@@H]2CCCN2C(=O)[C@H](CC(=O)O)NC(=O)[C@H](CC(C)C)NC(=O)[C@@H](NC(C)=O)CSSC[C@@H](C(N)=O)NC(=O)[C@H](CCC(N)=O)NC1=O` [Example 26, Ac-c(Cys-Leu-Asp-Pro-Lys-Gln-Lys-D-Trp-Ile-Gln-Cys)-NH2] (Ac-CLDPKQK[dW]IQC-NH2; disulfide 1-11) returned a half-maximal effective concentration (EC50) in the experiment with MCP-1 of 20 nM. Moreover, in the experiment on IL-8, the “v IL-8 inhibition (%)” value is reported as 94.9%.
For `CC[C@H](C)[C@@H]1NC(=O)[C@H](Cc2c[nH]c3ccccc23)NC(=O)[C@H](CCCCN)NC(=O)[C@H](CCC(N)=O)NC(=O)[C@@H](CCCCN)NC(=O)[C@@H]2CCCN2C(=O)[C@H](CC(=O)O)NC(=O)[C@H](CC(C)C)NC(=O)[C@@H](NC(C)=O)CSSC[C@@H](C(N)=O)NC(=O)[C@H](CCC(N)=O)NC1=O` [Example 29, Ac-c(Cys-Leu-Asp-Pro-D-Lys-Gln-Lys-Trp-Ile-Gln-Cys)-NH2] (Ac-CLDP[dK]QKWIQC-NH2; disulfide 1-11) the same measures were 30 nM and 92.0%.
For `CCCCCCCC(=O)NCCCC[C@@H]1NC(=O)[C@@H](CC(=O)O)NC(=O)[C@H]2CCCN2C(=O)[C@@H](CCCCN)NC(=O)[C@@H](CCC(N)=O)NC(=O)[C@@H](CCCCN)NC(=O)[C@@H](Cc2c[nH]c3ccccc23)NC(=O)[C@@H]([C@H](C)CC)NC(=O)[C@@H](CCC(N)=O)NC(=O)[C@H](N)CSSC[C@H](C(=O)O)NC(=O)[C@@H](CC(C)C)NC1=O` [Example 154, c(D-Cys-D-Gln-D-Ile-D-Trp-D-Lys-D-Gln-D-Lys-D-Pro-D-Asp-Lys(Nε-octanoyl)-D-Leu-D-Cys)-OH] (H-[dC][dQ][dI][dW][dK][dQ][dK][dP][dD]K(Octanoyl)[dL][dC]-OH; disulfide 1-12) the same measures were greater than 1000 nM and 9.8%.
For `CC[C@H](C)[C@@H]1NC(=O)[C@H](Cc2c[nH]c3ccccc23)NC(=O)[C@@H](NC(=O)[C@H](CCCCN)NC(=O)[C@H](CCC(N)=O)NC(=O)[C@H](CCCCN)NC(=O)[C@@H]2CCCN2C(=O)[C@H](CC(=O)O)NC(=O)[C@@H](N)CC(C)C)CSSC[C@@H](C(N)=O)NC(=O)[C@H](CCC(N)=O)NC1=O` [Example 13, Leu-Asp-Pro-Lys-Gln-Lys-c(Cys-Trp-Ile-Gln-Cys)-NH2] (H-LDPKQKCWIQC-NH2; disulfide 7-11) the same measures were 8000 nM and 5.8%.
As to `CC[C@H](C)[C@@H]1NC(=O)[C@H](Cc2c[nH]c3ccccc23)NC(=O)[C@H](CCCCN)NC(=O)[C@H](CCC(N)=O)NC(=O)[C@@H](N)CSSC[C@@H](C(N)=O)NC(=O)[C@H](CCC(N)=O)NC1=O` [Example 50, c(Cys-Gln-Lys-Trp-Ile-Gln-Cys)-NH2] (H-CQKWIQC-NH2; disulfide 1-7), the EC50 in the experiment on MCP-1 was 25 nM. Moreover, the “v IL-8 inhibition (%)” value in the experiment with IL-8 is on record as 104.8%.
In the experiment with MCP-1, `CC(=O)N[C@H]1CSSC[C@@H](C(N)=O)NC(=O)[C@H](CCC(N)=O)NC(=O)[C@H](Cc2c[nH]c3ccccc23)NC(=O)[C@H](CCCCN)NC(=O)[C@H](CCC(N)=O)NC(=O)[C@H](CCCCN)NC(=O)[C@@H]2CCCN2C(=O)[C@H](CC(=O)O)NC(=O)C2(CCCCC2)NC1=O` [Example 156, Ac-c(Cys-A6c-Asp-Pro-Lys-Gln-Lys-Trp-Gln-Cys)-NH2] (Ac-C[Ac6c]DPKQKWQC-NH2; disulfide 1-10) registered a concentration for a half-maximal effect (EC50) greater than 1000 nM. The “v IL-8 inhibition (%)” value in the experiment on IL-8 was determined as 3.1%.
The molecule `CC[C@H](C)[C@@H]1NC(=O)[C@@H](NC(=O)[C@H](Cc2c[nH]c3ccccc23)NC(=O)[C@@H](N)CCCCN)CSSC[C@@H](C(N)=O)NC(=O)[C@H](CCC(N)=O)NC1=O` [Example 15, Lys-Trp-c(Cys-Ile-Gln-Cys)-NH2] (H-KWCIQC-NH2; disulfide 3-6) registered an EC50 in the experiment on MCP-1 of 3000 nM. Also, in the experiment on IL-8, the “v IL-8 inhibition (%)” value was found to be 10.5%.
As to `CC[C@H](C)[C@@H]1NC(=O)[C@H](Cc2c[nH]c3ccccc23)NC(=O)[C@H](CCCCN)NC(=O)[C@H](CCC(N)=O)NC(=O)[C@H](CCCCN)NC(=O)[C@@H]2CCCN2C(=O)[C@H](CC(=O)O)NC(=O)[C@H](CC(C)C)NC(=O)[C@@H](NC(=O)[C@H](CC(=O)O)NC(C)=O)CSSC[C@@H](C(=O)N[C@H](CN)C(N)=O)NC(=O)[C@H](CCC(N)=O)NC1=O` [Example 17, Ac-Asp-c(Cys-Leu-Asp-Pro-Lys-Gln-Lys-Trp-Ile-Gln-Cys)-D-Dap-NH2] (Ac-DCLDPKQKWIQC[dDap]-NH2; disulfide 2-12), in the experiment on MCP-1, the EC50 was greater than 1000 nM. Further, the “v IL-8 inhibition (%)” value in the experiment on IL-8 was 15.5%.

In general, EC50 refers to the midpoint of the concentration-response curve.

Values taken from patent US20110038885A1, “CHEMOKINE ANALOGS” (priority 2007, published 2011).
